From US3991187A, “Medicinal compositions and methods of use involving phosphoric acid esters” (Aktiebolaget Leo, priority 1971, dated 1976)

What was measured:
[1] = system: prostaglandins E1, E2 F1α and F2α; test: PG-inhibitory effect on the isolated gerbil colon; assay type: cell-based, Gerbils (Meriones unguiculatus); conditions: gerbil colon
Method: The PG-inhibitory effect of esters of the present invention on the gerbil colon are determined using the general technique described by Eakins, Miller & Karim (J. Pharm. Exp. Ther. 176:441, 1971). Gerbils (Meriones unguiculatus) of own breed, both sexes, weighing 50-80 g are used. The animal is stunned, colon ascendens immediately removed, and a 2-3 cm piece mounted in a 6 ml bath containing a modified de Jalon solution at 28° C and continuously oxygenated. Contractions of the organ are registered either isotonically or isometrically. When testing the inhibitory effect of a compound this is added to the bath 2 min before the addition of prostaglandin. […] Several concentrations of each antagonist are used.

[2] = system: Slow Reacting Substance (SRS); test: antagonism to Slow Reacting Substance on the isolated guinea-pig ileum (Mathe & Strandberg); assay type: cell-based
Method: The antagonism to Slow Reacting Substance (SRS) is determined on the isolated guinea-pig ileum as described by Mathe & Strandberg (Acta physiol. scand. 82:460, 1971). Purified SRS is obtained from cat paws perfused with compound 48/80 (Strandberg & Uvnas: Acta physiol. scand. 82:358, 1971). Sodium bis(4-(3-oxo-3-(2,4,6-trihydroxyphenyl)propyl)phenyl) phosphate was tested in this system in several concentrations.

PGE1 = test: prostaglandin-stimulated glycolysis of the prepubertal ovary (lactic acid production); assay type: cell-based, rats; conditions: compared with the compound giving 50% reduction at 50-100 μg/ml
Method: The action of esters of the present invention on the prostaglandin-stimulated glycolysis of the prepubertal ovary is investigated. The method used has been described in detail by Perklev & Ahren (Life Sciences Part I, 10:1387, 1971). In these experiments ovaries from prepubertal rats are removed and placed in Erlenmeyer flasks containing compounds of this invention dissolved in Krebs biocarbonate buffer. After that the ovaries have been preincubated during 60 min. at 37° C in this medium, they are blotted on filter paper and then washed for 2 min. in plain buffer. The ovaries are then transferred to a new incubation medium containing prostaglandins (PG) dissolved in Krebs bicarbonate buffer and incubated at 37° C for 2 hrs with continuous shaking. The ovarian glycolysis is then determined by measuring the concentration of lactic acid in the incubation medium. When polyphloretin phosphate (PPP) is present in the preincubation medium in a concentration of 500 μg/ml, the subsequent ovarian lactic acid production produced by PGE1 is reduced to about 50% of that obtained with ovaries preincubated in plain buffer. When sodium bis(4-(3-(2,4,6-trihydroxyphenyl)propyl)phenyl)phosphate is investigated in the same experimental system, a 50% reduction of the lactate production is seen when only 50-100 μg/ml of the compound is present in the preincubation medium.

Row | SMILES | selective inhibitory effects compared with PPP [1] | inhibition of SRS [2] | prostaglandin inhibiting activity (PGE1)
1 | O=C(CCc1cccc(OP(=O)(O)Oc2cccc(CCC(=O)c3ccc(OP(=O)(O)O)cc3)c2)c1)c1ccc(OP(=O)(O)O)cc1 [bis(dihydrogen phosphate) of bis(3-(3-(4-hydroxyphenyl)-3-oxopropyl)phenyl hydrogen phosphate] | equal to or superior to that of PPP | inhibit SRS | same order
2 | O=C(C=Cc1ccc(O)cc1)c1c(O)cc(OP(=O)([O-])Oc2cc(O)c(C(=O)C=Cc3ccc(O)cc3)c(O)c2)cc1O.[Na+] [sodium bis(3,5-dihydroxy-4-(3-(4-hydroxyphenyl)-acryloyl)phenyl) phosphate] | – | inhibit SRS | same order
3 | O=C(CCc1cccc(OP(=O)([O-])Oc2cccc(CCC(=O)c3c(O)cc(O)cc3O)c2)c1)c1c(O)cc(O)cc1O.[Na+] [sodium bis(3-(3-(2,4,6-trihydroxyphenyl)-3-oxopropyl)phenyl) phosphate] | equal to or superior to that of PPP | inhibit SRS | same order
4 | O=C(CCc1cccc(OP(=O)([O-])Oc2cccc(CCC(=O)c3ccc(O)cc3O)c2)c1)c1ccc(O)cc1O.[Na+] [sodium bis(3-(3-(2,4-dihydroxyphenyl)-3-oxopropyl)phenyl) phosphate] | equal to or superior to that of PPP | inhibit SRS | same order
5 | Nc1ccccc1C(=O)CCc1cccc(OP(=O)([O-])Oc2cccc(CCC(=O)c3ccccc3N)c2)c1.[Na+] [sodium bis(3-(3-(2-aminophenyl)-3-oxopropyl)phenyl) phosphate] | equal to or superior to that of PPP | – | –
6 | O=C(CCc1cccc(OP(=O)([O-])Oc2cccc(CCC(=O)c3ccccc3O)c2)c1)c1ccccc1O.[Na+] [sodium bis(3-(3-(2-hydroxyphenyl)-3-oxopropyl)phenyl) phosphate] | equal to or superior to that of PPP | inhibit SRS | –
7 | COc1ccc(CCC(=O)c2cccc(OP(=O)([O-])Oc3cccc(C(=O)CCc4ccc(OC)c(CN(C)C)c4)c3)c2)cc1CN(C)C.[Na+] [sodium bis(3-(3-(3-dimethylaminomethyl-4-methoxyphenyl)propionyl)phenyl) phosphate] | equal to or superior to that of PPP | – | –
8 | CN(C)C(=O)Cc1ccc(C(=O)CCc2cccc(OP(=O)([O-])Oc3cccc(CCC(=O)c4ccc(CC(=O)N(C)C)cc4)c3)c2)cc1.[Na+] [sodium bis(3-(3-(4-(N,N-dimethylcarbamoylmethyl)phenyl)-3-oxopropyl)phenyl)phosphate] | equal to or superior to that of PPP | – | –
9 | CCN(CC)c1ccc(CCC(=O)c2cccc(OP(=O)([O-])Oc3cccc(C(=O)CCc4ccc(N(CC)CC)cc4)c3)c2)cc1.[Na+] [sodium bis(3-(3-(4-diethylaminophenyl)propionyl)phenyl) phosphate] | equal to or superior to that of PPP | – | –
10 | COc1cc(CCC(=O)c2cccc(OP(=O)([O-])Oc3cccc(C(=O)CCc4ccc(O)c(OC)c4)c3)c2)ccc1O.[Na+] [sodium bis(3-(3-(4-hydroxy-3-methoxyphenyl)propionyl)phenyl) phosphate] | equal to or superior to that of PPP | inhibit SRS | –
11 | O=C(CCc1cccc(OP(=O)(O)Oc2cccc(CCC(=O)c3ccc(O)cc3)c2)c1)c1ccc(O)cc1 [sodium bis(3-(3-(4-hydroxyphenyl-3-oxopropyl)phenyl) phosphate] | equal to or superior to that of PPP | inhibit SRS | same order
12 | COC(=O)Cc1ccc(C(=O)CCc2cccc(OP(=O)([O-])Oc3cccc(CCC(=O)c4ccc(CC(=O)OC)cc4)c3)c2)cc1.[Na+] [sodium bis(3-(3-(4-methoxycarbonylmethylphenyl)-3-oxo-propyl)phenyl) phosphate] | equal to or superior to that of PPP | – | –
13 | Nc1ccccc1C(=O)CCc1ccc(OP(=O)([O-])Oc2ccc(CCC(=O)c3ccccc3N)cc2)cc1.[Na+] [sodium bis(4-(3-(2-aminophenyl)-3-oxopropyl)phenyl) phosphate] | equal to or superior to that of PPP | – | –
14 | Cc1cc(OP(=O)([O-])Oc2ccc(CCC(=O)c3ccccc3O)c(C)c2)ccc1CCC(=O)c1ccccc1O.[Na+] [sodium bis(4-(3-(2-hydroxyphenyl)-3-oxopropyl)-3-methylphenyl) phosphate] | equal to or superior to that of PPP | inhibit SRS | –
15 | O=C(CCc1ccc(OP(=O)([O-])Oc2ccc(CCC(=O)c3ccccc3O)cc2)cc1)c1ccccc1O.[Na+] [sodium bis(4-(3-(2-hydroxyphenyl)-3-oxopropyl)phenyl)phosphate] | equal to or superior to that of PPP | inhibit SRS | –
16 | Nc1ccc(C(=O)CCc2ccc(OP(=O)(O)Oc3ccc(CCC(=O)c4ccc(N)cc4)cc3)cc2)cc1 [sodium bis(4-(3-(4-aminophenyl)-3-oxopropy)phenyl) phosphate] | equal to or superior to that of PPP | – | –
17 | COc1cc(OP(=O)([O-])Oc2ccc(C(=O)CCc3ccc(N)cc3)c(OC)c2)ccc1C(=O)CCc1ccc(N)cc1.[Na+] [sodium bis(4-(3-(4-aminophenyl)propionyl)-3-methoxyphenyl) phosphate] | equal to or superior to that of PPP | – | –
18 | CCN(CC)c1ccc(C=C(C(=O)c2ccc(OP(=O)([O-])Oc3ccc(C(=O)C(=Cc4ccc(N(CC)CC)cc4)c4ccc(C)cc4)c(OC)c3)cc2OC)c2ccc(C)cc2)cc1.[Na+] [sodium bis(4-(3-(4-diethylaminophenyl)-2-(4-methylphenyl)acryloyl)-3-methoxyphenyl) phosphate] | equal to or superior to that of PPP | – | –
19 | CCN(CC)c1ccc(CCC(=O)c2cc(C)c(OP(=O)([O-])Oc3c(C)cc(C(=O)CCc4ccc(N(CC)CC)cc4)cc3C)c(C)c2)cc1.[Na+] [sodium bis(4-(3-(4-diethylaminophenyl)propionyl)-2,6-dimethylphenyl) phosphate] | equal to or superior to that of PPP | – | –
20 | Nc1cccc(C(=O)CCc2ccc(OP(=O)(O)Oc3ccc(CCC(=O)c4cccc(N)c4)cc3)cc2)c1 [sodium bis(4-(3-aminophenyl)-3-oxypropyl)phenyl) phosphate] | equal to or superior to that of PPP | – | –
21 | O=C(CCCc1ccc(OP(=O)([O-])Oc2ccc(CCCC(=O)c3ccc(O)cc3O)cc2)cc1)c1ccc(O)cc1O.[Na+] [sodium bis(4-(4-(2,4-dihydroxyphenyl)-4-oxobutyl)phenyl) phosphate] | equal to or superior to that of PPP | inhibit SRS | same order
22 | COc1ccc(CCC(=O)c2c(O)cccc2O)cc1OP(=O)([O-])Oc1cc(CCC(=O)c2c(O)cccc2O)ccc1OC.[Na+] [sodium bis(5-(3-(2,6-dihydroxyphenyl)-3-oxopropyl)-2-methoxyphenyl)phosphate] | equal to or superior to that of PPP | inhibit SRS | same order
23 | O=C([O-])Cc1ccc(C(=O)CCc2cccc(OP(=O)([O-])Oc3cccc(CCC(=O)c4ccc(CC(=O)[O-])cc4)c3)c2)cc1.[Na+].[Na+].[Na+] [trisodium bis(3-(3-(4-carboxylatomethylphenyl)-3-oxopropyl)phenyl) phosphate] | equal to or superior to that of PPP | inhibit SRS | same order
24 | O=C([O-])c1ccc(CCC(=O)c2cccc(OP(=O)([O-])Oc3cccc(C(=O)CCc4ccc(C(=O)[O-])cc4)c3)c2)cc1.[Na+].[Na+].[Na+] [trisodium bis(3-(3-(4-carboxylatophenyl)propionyl)phenyl) phosphate] | equal to or superior to that of PPP | inhibit SRS | same order
